Activity calls are given as the source filed them. The rule behind the calls is not given here.
Experiments:
[1] = target: T1, Oxysterols receptor LXR-alpha (Homo sapiens, UniProt Q13133); assay: (§1) Agonist activity at LXRalpha ligand binding domain-mediated transcriptional activity in african green monkey CV1 cells co-transfected with Gal4-SRC1 by luciferase reporter assay; assay type: cell-based, CV-1
T1 sequence (Q13133 whole entry): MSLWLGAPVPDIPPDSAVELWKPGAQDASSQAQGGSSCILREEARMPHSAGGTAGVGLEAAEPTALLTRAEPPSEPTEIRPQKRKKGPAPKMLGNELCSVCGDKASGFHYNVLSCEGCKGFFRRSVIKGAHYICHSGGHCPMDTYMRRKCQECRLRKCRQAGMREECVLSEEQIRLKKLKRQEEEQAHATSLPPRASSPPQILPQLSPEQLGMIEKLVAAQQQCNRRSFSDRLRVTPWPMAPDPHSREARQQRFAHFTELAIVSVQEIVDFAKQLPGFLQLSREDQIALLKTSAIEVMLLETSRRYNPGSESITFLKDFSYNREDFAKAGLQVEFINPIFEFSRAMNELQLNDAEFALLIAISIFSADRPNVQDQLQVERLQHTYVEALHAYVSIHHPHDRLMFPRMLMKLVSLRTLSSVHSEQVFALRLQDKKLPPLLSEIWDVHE

[2] = target: T2, Oxysterols receptor LXR-beta (Homo sapiens, UniProt P55055); assay: Displacement of [N-methyl-3H]T1317 from human biotinylated LXRbeta LBD after 3 hrs by LEAD seeker binding assay
T2 sequence (P55055 whole entry, the tested form may be a part): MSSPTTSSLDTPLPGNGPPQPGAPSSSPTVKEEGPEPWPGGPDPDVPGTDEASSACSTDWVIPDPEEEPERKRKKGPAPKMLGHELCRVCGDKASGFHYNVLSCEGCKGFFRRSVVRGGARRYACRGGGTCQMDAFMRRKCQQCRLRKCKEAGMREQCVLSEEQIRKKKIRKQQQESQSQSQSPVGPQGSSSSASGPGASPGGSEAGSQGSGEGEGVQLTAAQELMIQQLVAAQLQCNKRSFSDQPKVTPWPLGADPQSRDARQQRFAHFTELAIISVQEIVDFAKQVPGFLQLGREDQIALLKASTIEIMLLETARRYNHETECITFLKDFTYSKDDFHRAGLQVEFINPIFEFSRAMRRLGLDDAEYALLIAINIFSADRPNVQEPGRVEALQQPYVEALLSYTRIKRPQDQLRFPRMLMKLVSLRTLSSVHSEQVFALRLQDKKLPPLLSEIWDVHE

[3] = target: T2, Oxysterols receptor LXR-beta; assay: Agonist activity at LXRbeta ligand binding domain-mediated transcriptional activity in african green monkey CV1 cells co-transfected with Gal4-SRC1 by luciferase reporter assay; assay type: cell-based, CV-1
HepG2 [4] = assay: Inhibition of GW-3965-induced SREBP-1c expression in human HepG2 cells; assay type: functional, cell-based
HepG2 [5] = assay: Inhibition of basal triglyceride level in human HepG2 cells
THP-1 = assay: Inhibition of ABCA1 expression in human THP1 cells; assay type: functional, cell-based
[6] = target: T3, Oxysterols receptor LXR-alpha (Homo sapiens) (UniProt Q13133); assay: as §1; assay type: cell-based; conditions: CV-1
T3 sequence (whole entry): T1 sequence (Q13133 whole entry)

HepG2 [7] = assay: Inhibition of SREBP-1c expression in human HepG2 cells; assay type: functional, cell-based
[8] = target: T2, Oxysterols receptor LXR-beta; conditions: CV-1

Row | Structure (SMILES) | EC50 [1] [nM] | IC50 [2] [nM] | further results
1 | Cn1cnc(S(=O)(=O)N(Cc2ccc(-c3cccc(S(C)(=O)=O)c3)cc2)Cc2c(F)cccc2Cl)c1 | 79.4 | – | –
2 | Cc1cc(C)c(S(=O)(=O)N(Cc2ccc(-c3cccc(S(C)(=O)=O)c3)cc2)Cc2ccc(F)cc2Cl)c(C)c1 | 126 | – | –
3 | CS(=O)(=O)c1cccc(-c2ccc(CN(Cc3c(F)cccc3Cl)S(=O)(=O)C3CC3)cc2)c1 | 100 | – | –
4 | O=C(c1ccccc1)N(Cc1ccc(-c2ccccc2)cc1)Cc1ccc(F)cc1Cl | – | > 10000 | –
5 | CS(=O)(=O)c1cccc(-c2ccc(CN(Cc3c(F)cccc3Cl)S(=O)(=O)c3ccccc3)cc2)c1 | 6.31 | – | –
6 | Fc1ccc(CN(Cc2ccccc2)Cc2ccc(-c3ccccc3)cc2)c(Cl)c1 | – | > 10000 | –
7 | CS(=O)(=O)c1cccc(-c2ccc(CN(Cc3ccc(F)cc3Cl)S(=O)(=O)c3ccccc3)cc2)c1 | 10 | – | –

The next lines start with results.

Row | EC50 [1] [nM] | IC50 [2] [nM] | Structure (SMILES) | further results
8 | 79.4 | – | Cc1cc(C)c(S(=O)(=O)N(Cc2ccc(-c3cccc(S(C)(=O)=O)c3)cc2)Cc2c(F)cccc2Cl)c(C)c1 | –
9 | – | 19.9 | O=C(O)Cc1cccc(OCCCN(Cc2cccc(C(F)(F)F)c2Cl)CC(c2ccccc2)c2ccccc2)c1 | EC50 [3]: 100 nM
10 | 12.6 | – | Cc1ccccc1S(=O)(=O)N(Cc1ccc(-c2cccc(S(C)(=O)=O)c2)cc1)Cc1c(F)cccc1Cl | –
11 | – | 31.6 | Cc1cc(C)c(S(=O)(=O)N(Cc2ccc(-c3cccc(S(C)(=O)=O)c3)cc2)Cc2ccc(C(F)(F)F)o2)c(C)c1 | Activity (HepG2 [4]): Dose-dependent effect; Activity (HepG2 [5]): Active; IC50 (THP-1): < 100 nM; pEC50 [6]: inactive; IC50 (HepG2 [7]): < 100 nM; pEC50 [8]: inactive

— ChEMBL document CHEMBL1156210, “Discovery of tertiary sulfonamides as potent liver X receptor antagonists” (J Med Chem, 2010)
